Key:
clinical [1] = conditions: female, human, in vivo, po
clinical [2] = conditions: for Cmax, least squares geometric mean, Test / Cmax, least squares geometric mean, Reference: co-administered with HCTZ and metformin, in ng/mL; for effect of oral octreotide on the exposure to the probe drug (Cmax and AUC0-5): single 40 mg oral octreotide acetate vs placebo, first 5 h after dosing
Text: This was a single-center, randomized, single-blind, placebo-controlled, crossover design study in healthy male and female subjects.
Eligible subjects were randomized in a 1:1 ratio to one of two treatment sequences of test conditions (i.e., Group 1 or Group 2); females were studied under 4 test conditions (A to D), whereas males were studied under 2 test conditions only (A and B), as shown in Table 1.
The study comprised a screening period, 4 treatment (dosing) periods for females and 2 treatment periods for males, and a follow-up period (approximately 7-10 days following the last dosing). There was a washout period of at least 14 days between dosing events.
The effect of […] on the absorption of estradiol was assessed by comparing Test Conditions C and D in up to 14 females. Blood sampling was conducted over the first 5 hours after administration.
Confidence intervals (Cis) (90%) were constructed for the geometric mean rations (GMRs) (probe drug+oral octreotide to probe drug alone) of the 2 parameters using the natural log-transformed data and the 2 one-sided t-tests procedure. The GMRs and CIs were exponentiated back to the original scale. The effect of concurrent administration of oral octreotide was assessed from the GMRs and 90% Cis. The discrete parameter Tmax was compared among treatments using non-parametric analyses.

[3] = both, human, in vivo, po, 100 mg
[4] = both, human, in vivo, po, 850 mg
[5] = R-warfarin with oral octreotide vs R-warfarin with placebo
[6] = S-warfarin with oral octreotide vs S-warfarin with placebo

C#C[C@]1(O)CC[C@H]2[C@@H]3CCc4cc(O)ccc4[C@H]3CC[C@@]21C [Ethinyl Estradiol, ethinyl estradiol]
Cmax Geometric Mean Ratio, Estimate (clinical [1]): 92.05%
Tmax (clinical [1]): 2.75 h
AUC(0-t) (clinical [1]; 0.06 mg): 0.37 ± 0.0802 ng·h/mL
Tmax (clinical [1]; 0.06 mg): 1.79 h
Cmax (clinical [1]; 0.06 mg, Cmax): 0.113 ± 0.0287 ng/mL

NS(=O)(=O)c1cc2c(cc1Cl)NCNS2(=O)=O [Hydrochlorothiazide, hydrochlorothiazide]
AUC(0-5) Geometric Mean Ratio, Estimate (clinical [2]; both, human, in vivo, po): 81.82%
Cmax Geometric Mean Ratio, Estimate (clinical [2]; both, human, in vivo, po): 91.21%
Tmax (clinical [2]; both, human, in vivo, po): 4 h
AUC(0-t) (clinical [2]; [3]): 2030 ± 392 ng·h/mL
Tmax (clinical [2]; [3]): 2.75 h
Cmax (clinical [2]; both, human, in vivo, po, 100 mg, Cmax): 655 ± 128 ng/mL

CN(C)C(=N)N=C(N)N [Metformin, metformin]
AUC(0-t) (clinical [2]; [4]): 5500 ± 1280 ng·h/mL
Cmax (clinical [2]; [4]): 1450 ± 398 ng/mL

CC(=O)C[C@H](c1ccccc1)c1c(O)c2ccccc2oc1=O [R-Warfarin, R-warfarin]
Cmax (clinical [2]; R-warfarin in plasma, single 7.5 mg oral racemic warfarin, with single 40 mg (2x20 mg) oral octreotide acetate, healthy volunteers, mean ± SD): 508 ± 97.0 ng/mL
Cmax (clinical [2]; R-warfarin in plasma, single 7.5 mg oral racemic warfarin, without oral octreotide (placebo), healthy volunteers, mean ± SD): 498 ± 82.0 ng/mL
Cmax, least squares geometric mean, Test (clinical [2]; R-warfarin with oral octreotide 40 mg, 7.5 mg racemic warfarin): 500.10
AUC(0-5) Geometric Mean Ratio, Estimate (clinical [2]; [5]): 105.17%
Cmax Geometric Mean Ratio, Estimate (clinical [2]; [5]): 101.84%
Cmax, least squares geometric mean, Reference (clinical [2]; R-warfarin with placebo, 7.5 mg racemic warfarin): 491.04
AUC(0-5) (clinical [2]; R-warfarin, 7.5 mg racemic warfarin, with 40 mg oral octreotide acetate, mean ± SD): 2012 ± 348 ng·h/mL
Tmax (clinical [2]; R-warfarin, 7.5 mg racemic warfarin, with 40 mg oral octreotide acetate, median): 2.00 (18) h
AUC(0-5) (clinical [2]; R-warfarin, 7.5 mg racemic warfarin, without oral octreotide (placebo), mean ± SD): 1907 ± 280 ng·h/mL
Tmax (clinical [2]; R-warfarin, 7.5 mg racemic warfarin, without oral octreotide (placebo), median): 1.00 (18) h
effect of oral octreotide on the exposure to the probe drug (Cmax and AUC0-5) (clinical [2]; healthy volunteers): no significant effect

CC(=O)C[C@@H](c1ccccc1)c1c(O)c2ccccc2oc1=O [S-Warfarin, S-warfarin]
Cmax (clinical [2]; S-warfarin in plasma, single 7.5 mg oral racemic warfarin, with single 40 mg (2x20 mg) oral octreotide acetate, healthy volunteers, mean ± SD): 492 ± 114.2 ng/mL
Cmax (clinical [2]; S-warfarin in plasma, single 7.5 mg oral racemic warfarin, without oral octreotide (placebo), mean ± SD): 503 ± 91.2 ng/mL
Cmax, least squares geometric mean, Test (clinical [2]; S-warfarin with oral octreotide 40 mg, 7.5 mg racemic warfarin): 480.09
AUC(0-5) Geometric Mean Ratio, Estimate (clinical [2]; [6]): 102.38%
Cmax Geometric Mean Ratio, Estimate (clinical [2]; [6]): 97.06%
Cmax, least squares geometric mean, Reference (clinical [2]; S-warfarin with placebo, 7.5 mg racemic warfarin): 494.64
AUC(0-5) (clinical [2]; S-warfarin, 7.5 mg racemic warfarin, with 40 mg oral octreotide acetate, mean ± SD): 1894 ± 330 ng·h/mL
Tmax (clinical [2]; S-warfarin, 7.5 mg racemic warfarin, with 40 mg oral octreotide acetate, median): 1.50 (18) h
AUC(0-5) (clinical [2]; S-warfarin, 7.5 mg racemic warfarin, without oral octreotide (placebo), mean ± SD): 1846 ± 286 ng·h/mL
Tmax (clinical [2]; S-warfarin, 7.5 mg racemic warfarin, without oral octreotide (placebo), median): 1.00 (18) h
effect of oral octreotide on the exposure to the probe drug (Cmax and AUC0-5) (clinical [2]; healthy volunteers): no significant effect

— patent publication US11890316B2, “Oral octreotide therapy and contraceptive methods” (Amryt Endo, Inc., priority 2020, dated 2024)
